How the values were obtained:
Assay in all cases: relative viability (nuclei count vs DMSO), 5 days (fraction); higher = more cells survive
[1] = compound: CC[C@@H](C)CNCC(=O)N1CCC2=C([C@@H]1COC3=CC=CC(=C3)C)C=CS2 [RU-SKI 43] + O=C(c1cc(Cc2n[nH]c(=O)c3ccccc23)ccc1F)N1CCN(C(=O)C2CC2)CC1 [Olaparib] (partner 8 µM)
How it was run: (§1)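 For relative viability, nuclei counts in treated wells were divided by those in vehicle wells. Lung cancer cell lines had been pin-tool dosed in 1536-well plates the day after seeding and cultured for 5 days, then fixed and stained in one step (final 0.05% Triton X-100, 1% formaldehyde, 1 ug/ml Hoechst) and imaged at 4×. Doses were one drug alone or a fixed anchor-drug dose plus five library-drug doses (not always all listed) in √10 steps, and values are duplicate-plate medians.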

[2] = compound: CCc1c2c(nc3ccc(OC(=O)N4CCC(N5CCCCC5)CC4)cc13)-c1cc3c(c(=O)n1C2)COC(=O)[C@]3(O)CC [Irinotecan] + Cc1nc(NC(=O)N2CCC[C@H]2C(N)=O)sc1-c1ccnc(C(C)(C)C(F)(F)F)c1 [Alpelisib] (partner 2 µM)
How it was run: as §1

[3] = compound: CCc1c2c(nc3ccc(OC(=O)N4CCC(N5CCCCC5)CC4)cc13)-c1cc3c(c(=O)n1C2)COC(=O)[C@]3(O)CC [Irinotecan] + Cc1nc(Nc2ncc(C(=O)Nc3c(C)cccc3Cl)s2)cc(N2CCN(CCO)CC2)n1 [Dasatinib] (partner 0.075 µM)
How it was run: as §1

[4] = compound: CC[C@@H](C)CNCC(=O)N1CCC2=C([C@@H]1COC3=CC=CC(=C3)C)C=CS2 [RU-SKI 43] + C[C@]1(O)C[C@@H](c2nc(-c3ccc4ccc(-c5ccccc5)nc4c3)c3c(N)nccn32)C1 [Linsitinib] (partner 1 µM)
How it was run: as §1

Q: Which relative viability ([1]; first compound 0.1 µM) does the source give for LXF-289 here?
A: Its relative viability is 1.09.

Q: And the relative viability ([1]; first compound 0.3162 µM)?
A: The relative viability was 1.09.

Q: And the relative viability ([1]; first compound 1 µM)?
A: The relative viability was 1.17.

Q: And the relative viability ([1]; first compound 3.162 µM)?
A: The relative viability was 1.16.

Q: And the relative viability ([1]; first compound 10 µM)?
A: Its relative viability is 0.948.

Q: What about the relative viability ([2]; first compound 0.6325 µM) of the same cell line?
A: The relative viability was 0.994.

Q: And the relative viability ([2]; first compound 2 µM)?
A: The relative viability was 0.504.

Q: And the relative viability ([2]; first compound 6.325 µM)?
A: Its relative viability is 0.273.

Q: And the relative viability ([2]; first compound 20 µM)?
A: The relative viability was 0.214.

Q: And the relative viability ([3]; first compound 0.6325 µM)?
A: The relative viability was 0.138.

Q: And the relative viability ([3]; first compound 2 µM)?
A: The relative viability was 0.265.

Q: And the relative viability ([3]; first compound 6.325 µM)?
A: Its relative viability is 0.172.

Q: And the relative viability ([3]; first compound 20 µM)?
A: Its relative viability is 0.139.

Q: What about the relative viability ([4]; first compound 0.1 µM) of the same cell line?
A: Its relative viability is 0.982.

Q: And the relative viability ([4]; first compound 0.3162 µM)?
A: Its relative viability is 1.01.

Q: What about the relative viability ([4]; first compound 1 µM) of the same cell line?
A: The relative viability was 0.96.

Q: What about the relative viability ([4]; first compound 3.162 µM) of the same cell line?
A: Its relative viability is 0.983.

Q: And the relative viability ([4]; first compound 10 µM)?
A: Its relative viability is 0.956.

Q: For LC-2-ad, which relative viability ([1]; first compound 0.1 µM) is on record?
A: The relative viability was 0.697.

Q: And the relative viability ([1]; first compound 0.3162 µM)?
A: Its relative viability is 0.774.

Q: What about the relative viability ([1]; first compound 1 µM) of the same cell line?
A: Its relative viability is 0.771.

Q: What about the relative viability ([1]; first compound 3.162 µM) of the same cell line?
A: The relative viability was 0.712.

Q: What about the relative viability ([1]; first compound 10 µM) of the same cell line?
A: The relative viability was 0.677.

Q: What about the relative viability ([2]; first compound 0.6325 µM) of the same cell line?
A: The relative viability was 0.634.

Q: What about the relative viability ([2]; first compound 2 µM) of the same cell line?
A: The relative viability was 0.283.

Q: And the relative viability ([2]; first compound 6.325 µM)?
A: The relative viability was 0.155.

Q: What about the relative viability ([2]; first compound 20 µM) of the same cell line?
A: Its relative viability is 0.17.

Q: And the relative viability ([3]; first compound 0.6325 µM)?
A: Its relative viability is 0.286.

Q: And the relative viability ([3]; first compound 2 µM)?
A: The relative viability was 0.437.

Q: And the relative viability ([3]; first compound 6.325 µM)?
A: Its relative viability is 0.184.

Q: And the relative viability ([3]; first compound 20 µM)?
A: Its relative viability is 0.204.

Q: What about the relative viability ([4]; first compound 0.1 µM) of the same cell line?
A: Its relative viability is 0.818.

Q: What about the relative viability ([4]; first compound 0.3162 µM) of the same cell line?
A: Its relative viability is 0.831.

Q: What about the relative viability ([4]; first compound 1 µM) of the same cell line?
A: Its relative viability is 0.899.

Q: What about the relative viability ([4]; first compound 3.162 µM) of the same cell line?
A: Its relative viability is 0.857.

Q: And the relative viability ([4]; first compound 10 µM)?
A: Its relative viability is 0.726.

Q: With NCI-H2085 as the cell line, how does the relative viability ([1]; first compound 0.1 µM) read?
A: Its relative viability is 0.765.

Q: And the relative viability ([1]; first compound 0.3162 µM)?
A: The relative viability was 0.681.

Q: And the relative viability ([1]; first compound 1 µM)?
A: Its relative viability is 0.717.

Q: And the relative viability ([1]; first compound 3.162 µM)?
A: The relative viability was 0.741.

Q: What about the relative viability ([1]; first compound 10 µM) of the same cell line?
A: The relative viability was 0.785.

Q: And the relative viability ([2]; first compound 0.6325 µM)?
A: The relative viability was 0.888.

Q: And the relative viability ([2]; first compound 2 µM)?
A: Its relative viability is 0.75.

Q: And the relative viability ([2]; first compound 6.325 µM)?
A: The relative viability was 0.458.

Q: What about the relative viability ([2]; first compound 20 µM) of the same cell line?
A: Its relative viability is 0.482.

Q: What about the relative viability ([3]; first compound 0.6325 µM) of the same cell line?
A: Its relative viability is 0.221.

Q: What about the relative viability ([3]; first compound 2 µM) of the same cell line?
A: Its relative viability is 0.23.

Q: What about the relative viability ([3]; first compound 6.325 µM) of the same cell line?
A: Its relative viability is 0.266.

Q: And the relative viability ([3]; first compound 20 µM)?
A: The relative viability was 0.273.

Q: And the relative viability ([4]; first compound 0.1 µM)?
A: Its relative viability is 0.929.

Q: And the relative viability ([4]; first compound 0.3162 µM)?
A: Its relative viability is 0.875.

Q: And the relative viability ([4]; first compound 1 µM)?
A: The relative viability was 1.01.

Q: And the relative viability ([4]; first compound 3.162 µM)?
A: The relative viability was 0.917.

Q: What about the relative viability ([4]; first compound 10 µM) of the same cell line?
A: Its relative viability is 0.772.

From the supplement of paper PMC10307832
